{"source": "patent US20250268887A1", "about": "“THERAPEUTIC USES OF BRADYKININ B2-RECEPTOR ANTAGONISTS” (Pharvaris GmbH, priority 2022, published 2025)", "assay": "Elimination half-life", "conditions": "human, in vivo", "data": [{"smiles": "[2H][C@@](C)(NC(=O)COC(F)F)c1cc(F)cc(Cl)c1COc1cccc2c(-c3ncnn3C)cc(C)nc12", "note": "[PHA-022121, (S)-N-(1-deutero-1-(3-chloro-5-fluoro-2-((2-methyl-4-(1-methyl-1H-1,2,4-triazol-5-yl)quinolin-8-yloxy)methyl)phenyl)ethyl)-2-(difluoromethoxy)acetamide]", "values": [{"measurement": "half-life", "value": "~4", "unit": "h"}]}]}
